ChEMBL document CHEMBL5523694, “Research progress on small molecule inhibitors targeting KRAS G12C with acrylamide structure and the strategies for solving KRAS inhibitor resistance” (Bioorg Med Chem, 2024)
Values belong to the molecule of their own block, whether it stands above or below them.

Key:
NCI-H358 [1] = test: Antitumor activity against human NCI-H358 cells xenografted in Balb/c nude mouse assessed as tumor growth inhibition at 5 mg/kg measured after 27 days by vernier caliper based assay relative to control; type: functional; conditions: NCI-H358, 648 h, time 27 day, read-out: TGI
MIA PaCa-2 = test: Antiproliferative activity against human MIA PaCa-2 cells harbouring KRAS G12C mutant by CellTiter-Glo assay; type: functional, cell-based
A-375 = test: Antiproliferative activity against human A-375 cells by CellTiter-Glo assay; type: functional, cell-based
NCI-H358 [2] = test: Antitumor activity against human NCI-H358 cells xenografted in Balb/c nude mouse assessed as tumor growth inhibition at 15 mg/kg measured after 27 days by vernier caliper based assay relative to control; type: functional; conditions: NCI-H358, 648 h, time 27 day, read-out: TGI
[3] = tested on: GTPase KRas (Homo sapiens), P01116 [G12C]; test: Inhibition of his tagged KRAS G12C mutant (1 to 169 residues) (unknown origin) by RapidFire mass spectrometric analysis; conditions: concentration not given here
[4] = tested on: GTPase KRas (Homo sapiens), P01116 [G12C]; test: Inhibition of KRAS G12C mutant (unknown origin); conditions: concentration not given here
GTPase KRas [5] = molecular target: T1, GTPase KRas (Homo sapiens, UniProt P01116, G12C); test: Inhibition of KRAS G12C mutant in human NCI-H23 cells; type: cell-based
[6] = tested on: von Hippel-Lindau disease tumor suppressor/GTPase KRas (Homo sapiens), P01116+P40337 [G12C]; test: PROTAC activity at VHL/KRAS G12C mutant in human NCI-H2030 cells assessed as induction of KRAS G12C degradation relative to control; type: cell-based
GTPase KRas [7] = molecular target: T1, GTPase KRas; test: Inhibition of KRAS G12C mutant in human NCI-H2030 cells; type: cell-based
[8] = tested on: GTPase KRas (Homo sapiens), P01116 [G12C]; test: Inhibition of KRAS G12C mutant (1 to 169 residues) (unknown origin) at 5 uM incubated for 1 min by Mass spectrometry reactivity assay
[9] = tested on: GTPase KRas (Homo sapiens), P01116 [G12C]; test: Binding affinity to KRAS G12C mutant (unknown origin) measured after 3 mins
[10] = Stability in monkey whole blood assessed as half life by LC/MS/MS analysis; type: ADME, tissue-based, Macaca mulatta; conditions: rhesus monkey
[11] = Stability in dog whole blood assessed as half life by LC/MS/MS analysis; type: ADME, tissue-based, Canis lupus familiaris
NCI-H358 [12] = test: Antiproliferative activity against human NCI-H358 cells harbouring KRAS G12C mutant by CellTiter-Glo assay; type: functional, cell-based
[13] = tested on: GTPase KRas (Homo sapiens), P01116 [G12C]; test: Inhibition of KRAS G12C mutant (unknown origin) at 5 uM relative to control
GTPase KRas [14] = molecular target: T1, GTPase KRas; test: Inhibition of KRAS G12C mutant in human NCI-H358 cells measured after 6 hrs; type: cell-based
GTPase KRas [15] = molecular target: T1, GTPase KRas; test: Inhibition of KRAS G12C mutant in human MIA PaCa-2 cells measured after 6 hrs; type: cell-based
GTPase KRas [16] = molecular target: T1, GTPase KRas; test: Inhibition of KRAS G12C mutant in human HCC1171 cells; type: cell-based
GTPase KRas [17] = molecular target: T1, GTPase KRas; test: Inhibition of KRAS G12C mutant (unknown origin) by HTRF method
[18] = molecular target: T2, von Hippel-Lindau disease tumor suppressor/GTPase KRas (Homo sapiens, UniProt P01116+P40337, G12C); test: PROTAC activity at VHL/KRAS G12C mutant in human NCI-H2030 cells assessed as induction of KRAS G12C degradation; type: cell-based
[19] = molecular target: T2, von Hippel-Lindau disease tumor suppressor/GTPase KRas; test: PROTAC activity at VHL/KRAS G12C mutant in human NCI-H23 cells assessed as induction of KRAS G12C degradation; type: cell-based
[20] = tested on: von Hippel-Lindau disease tumor suppressor/GTPase KRas (Homo sapiens), P01116+P40337 [G12C]; test: PROTAC activity at VHL/KRAS G12C mutant in human NCI-H23 cells assessed as induction of KRAS G12C degradation relative to control; type: cell-based
[21] = tested on: GTPase KRas (Homo sapiens), P01116 [G12C]; test: Inhibition of KRAS G12C mutant (unknown origin) at 10 uM relative to control

Compound: C=CC(=O)N1CCN(c2ncnc3c(=O)n(-c4c(N)c(Cl)cc(Cl)c4F)c(C(F)(F)F)cc23)CC1
- inhibition in vivo at 5 mg/kg (NCI-H358 [1]): 107%
- IC50 (MIA PaCa-2): 70000 nM
- IC50 (A-375): 7320 nM
- inhibition in vivo at 15 mg/kg (NCI-H358 [2]): 116%

Compound: C=CC(=O)N1CCN(c2c3c(nc4c(F)c(-c5c(O)cccc5F)c(Cl)cc24)NC(=O)NC3)CC1
- inhibition [3]: > 50%

Compound: C=CC(=O)N1CCN(c2ncnc3c(F)c(-c4c(O)cccc4F)c(Cl)cc23)CC1
- inhibition in vivo at 15 mg/kg (NCI-H358 [2]): 52%

Compound: C=C(F)C(=O)N1CCN(c2nc(CO[C@@H]3CCCN3CCC(=O)NCCOCCOCCC(=O)N[C@@H](C(=O)N3[C@H](O)CC[C@H]3C(=O)NCc3ccc(-c4scnc4C)cc3)C(C)(C)C)nc3c2CCN(c2cccc4cccc(Cl)c24)C3)C[C@@H]1CC#N
- EC50 (GTPase KRas [5]): 1300 nM
- Emax [6]: 30%
- EC50 (GTPase KRas [7]): > 10000 nM

Compound: C=CC(=O)N1CCN(c2nc(Oc3cccc4c3CCN(C)C4)nc3c(Oc4c(Cl)c(F)cc5[nH]ncc45)nccc23)CC1
- inhibition [8]: 80%

Compound: C=CC(=O)N1CCN(c2ncnc3c(=O)n(-c4c(O)cccc4F)c(C(F)(F)F)cc23)CC1
- IC50 (NCI-H358 [12]): 5360 nM
- IC50 (MIA PaCa-2): 6480 nM
- IC50 (A-375): > 50000 nM

Compound: C=CC(=O)N1C[C@H](C)N(c2nc(N3CC(N(C)C)C3)nc3c(F)c(-c4c(C)ccc5cn[nH]c45)c(Cl)cc23)C[C@H]1C
- Activity [9]: > 90%
- half-life [10]: 3.9 h
- half-life [11]: 5.95 h

Compound: C=CC(=O)N1CCN(c2nc(O[C@@H]3CN(C)C[C@H]3OC)nc3c(Oc4c(Cl)c(Cl)cc5[nH]ncc45)nc(Cl)cc23)CC1
- inhibition [8]: 82%

Compound: C=C(F)C(=O)N1CCN(c2nc(CO[C@@H]3CCCN3CCCOCCC(=O)N[C@@H](C(=O)C3N[C@H](C(=O)NCc4ccc(-c5scnc5C)cc4)C[C@H]3O)C(C)(C)C)nc3c2CCN(c2cccc4cccc(Cl)c24)C3)C[C@@H]1CC#N (stereo partly drawn)
- DC50 [18]: 590 nM
- DC50 [19]: 760 nM
- EC50 (GTPase KRas [5]): 2900 nM
- Emax [6]: 75%
- EC50 (GTPase KRas [7]): 3800 nM
- Emax [20]: 90%

Next, values leading:

- inhibition [4]: > 90%
Compound: C=CC(=O)N1CCN(c2nc(OCCN3CCCC3=O)nc3c(F)c(-c4c(O)cccc4F)c(Cl)cc23)CC1

- Activity [9]: > 90%
- half-life [10]: 7.8 h
- half-life [11]: 3 h
Compound: C=CC(=O)N1CCN(c2nc(OCCN3CC(F)(F)C3)nc3c(F)c(-c4c(O)cccc4F)c(Cl)cc23)CC1

- inhibition [13]: 78%
- IC50 (GTPase KRas [14]): 102 nM
- IC50 (GTPase KRas [15]): 68 nM
Compound: C=CC(=O)N1CCN(c2nc(N3CC(N(C)C)C3)nc3c2C[C@@H](C)C(c2c(C)c(Cl)cc4[nH]ncc24)C3)CC1 (stereo partly drawn)

- IC50 (GTPase KRas [16]): < 6 nM
- IC50 (GTPase KRas [17]): < 10 nM
Compound: C=CC(=O)N1CCN(c2nc(OC[C@@H]3CCCN3C)nc3c2C[C@@H](C)C(c2cc(O)cc4ccccc24)C3)[C@@H](C)C1 (stereo partly drawn)

- Activity [9]: > 90%
- half-life [10]: 7.8 h
- half-life [11]: 3 h
Compound: C=CC(=O)N1C[C@H](C)N(c2nc(OCCN3CC(F)(F)C3)nc3c(F)c(-c4c(O)cccc4F)c(Cl)cc23)C[C@H]1C

- IC50 (GTPase KRas [14]): 64 nM
- inhibition [21]: 80%
- IC50 (GTPase KRas [15]): 60 nM
Compound: C=CC(=O)N1CCN(c2nc(N3CC(N(C)C)C3)nc3c2C[C@@H](C)[C@H](c2c(Cl)c(C)cc4[nH]ccc24)C3)C[C@H]1C
